Values joined by “and” are separate entries in the source; they are usually repeats but may differ in a detail not shown here. Equal values may be shown once. Read-outs that look alike come from different tables or passages of the source.
How the values were obtained:
PARP1 = PARP1 (Homo sapiens (Human), UniProt P09874); test: PARP1 inhibitory activity, Universal PARP colorimetric assay kit (Trevigen); assay type: biochemical; conditions: for IC50: PARP1
Source text: 1. Measuring PARP1 Inhibitory Activity
1.1 Materials and Methods
Universal PARP colorimetric assay kit (US Trevigen company)

[1] = Preliminary pharmacokinetics study in SD rats (single intravenous injection or oral gavage, plasma LC-MS/MS); assay type: in vivo; conditions: for AUC(0-inf) / AUC(0-t) / clearance / half-life / Vd / bioavailability / Cmax / Tmax: male, Sprague-Dawley (SD), rat; for Vd: read-out: VdSS; for bioavailability: single oral gavage 10 mg/kg vs intravenous 5 mg/kg, read-out: F (oral bioavailability)
Experimental: 2. Preliminary Pharmacokinetics Study of Compounds A1, A3, A6 in SD Rats
Healthy SPF SD male rats: 18, weighing 180-220 g, purchased from Shanghai Si Lai Ke Lab Animal Co. Ltd.; animal license no. SOCK (Shanghai) 2013-00016.
Rats were divided into intravenous injection group and oral gavage administration group, and fast for 12-14 hours before experiments. Test compounds' concentration in venous blood was measured. Venous blood was collected by orbital, EDTAK2 anticoagulation. The blood samples were placed on ice, and centrifuged within 30 minutes to separate plasma (centrifugal condition: 5000 rpm/min, 10 min, room temperature). The samples were stored at −80° C. prior to analysis.
Rats in intravenous injection group received a single injection 5 mL/kg of the test compounds. Rats in oral gavage administration group received a single dose 10 mL/kg of the test compounds. Venous blood sample collection times were: before the injection of the test compound (0 hr); after the injection of the test compound: 15 min, 30 min, 1 h, 2 h, 4 h, 6 h, 8 h and 24 h; before the oral gavage administration of the test compound (0 hr) and after the oral gavage administration of the test compounds, 30 min, 1 h, 2 h, 4 h, 6 h, 8 h and 24 h.
Liquid phase conditions: column: Agilent Eclipse plus-C18 (4.6×150 mm, 5.0 μm), mobile phase: 0.1% aqueous formic acid (A)/0.1% formic acid in acetonitrile (B); gradient elution, flow rate: 1.00 mL/min (split v:v=1:1); injection volume: 10 μL.
MS conditions: using electrospray ionization (ESI) and the positive ion mode under multiple reaction monitoring (MRM).
Compounds A1, A3, and A6 were weighed precisely and added to MDSO to prepare 1.00 mg/mL stock solutions. After the stock solutions were diluted to prepare 10000, 5000, 2000, 1000, 500, 100, 50.0, 20.0 ng/mL standard working solutions. Quality control work concentrations include low (30 ng/mL), medium (500 ng/mL), and high (8000 ng/mL).
10 μL plasma sample was added 100 μL verapamil internal standard solution. The mixture was vortexed for 60 seconds and then centrifuged (12000 rpm, 3 min). 70 μL supernatant was transferred to a 96-well plate with equal volume of water in each well. LC-MS/MS analysis was then conducted, and the injection volume was 10 μL.
Data were processed by using WinNonlin 6.3 pharmacokinetic calculation software and non-compartment pharmacokinetic model to obtain major pharmacokinetic parameters.

[2] = in vivo, single intravenous injection, 5 mg/kg
[3] = in vivo, single oral gavage, 10 mg/kg
[4] = plasma, single oral gavage, 10 mg/kg
[5] = single intravenous injection, 5 mg/kg
[6] = plasma, single intravenous injection, 5 mg/kg

Sequence of PARP1 (P09874 whole entry): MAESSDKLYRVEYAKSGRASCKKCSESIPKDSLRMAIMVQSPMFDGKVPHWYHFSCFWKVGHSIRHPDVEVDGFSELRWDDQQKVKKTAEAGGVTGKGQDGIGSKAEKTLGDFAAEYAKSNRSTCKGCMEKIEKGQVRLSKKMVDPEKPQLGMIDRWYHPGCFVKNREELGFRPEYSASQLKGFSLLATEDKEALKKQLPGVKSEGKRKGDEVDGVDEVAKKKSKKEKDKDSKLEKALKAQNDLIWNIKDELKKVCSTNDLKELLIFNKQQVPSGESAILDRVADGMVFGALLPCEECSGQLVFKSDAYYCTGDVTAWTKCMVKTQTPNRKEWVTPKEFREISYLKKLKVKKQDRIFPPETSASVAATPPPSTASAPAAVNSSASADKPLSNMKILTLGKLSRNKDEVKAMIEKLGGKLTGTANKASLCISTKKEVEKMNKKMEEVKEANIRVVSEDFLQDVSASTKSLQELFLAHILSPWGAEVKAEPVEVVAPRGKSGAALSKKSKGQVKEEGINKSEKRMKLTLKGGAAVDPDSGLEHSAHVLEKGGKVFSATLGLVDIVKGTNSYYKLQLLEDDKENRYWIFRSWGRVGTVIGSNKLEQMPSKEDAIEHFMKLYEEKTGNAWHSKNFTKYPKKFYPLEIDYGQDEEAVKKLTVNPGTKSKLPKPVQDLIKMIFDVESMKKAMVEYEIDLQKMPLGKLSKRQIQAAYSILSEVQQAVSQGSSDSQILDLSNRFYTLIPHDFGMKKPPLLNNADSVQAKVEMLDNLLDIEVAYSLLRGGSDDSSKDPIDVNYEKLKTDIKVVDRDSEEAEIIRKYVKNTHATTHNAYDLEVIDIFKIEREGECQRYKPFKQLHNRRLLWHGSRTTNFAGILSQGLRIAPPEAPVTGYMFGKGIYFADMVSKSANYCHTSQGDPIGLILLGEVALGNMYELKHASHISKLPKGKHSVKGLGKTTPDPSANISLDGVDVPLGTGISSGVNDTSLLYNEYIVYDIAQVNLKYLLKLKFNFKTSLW

Row | SMILES | IC50 (PARP1) | exposure levels (AUC0-4) [1] | Tmax [1, 4] | AUMC0-inf [1, 5] | AUMC0-t [1, 5] | Kel [1, 5] | MRTIV [1, 5] | AUMC0-inf ([1]; single oral gavage, 10 mg/kg) | AUMC0-t ([1]; single oral gavage, 10 mg/kg) | CL ([1]; single oral gavage, 10 mg/kg) | Kel ([1]; single oral gavage, 10 mg/kg) | MRTPO ([1]; single oral gavage, 10 mg/kg) | Vz ([1]; single oral gavage, 10 mg/kg) | further results
1 | NC(=O)c1ccc(I)c([N+](=O)[O-])c1 [BSI-201, reference compound] |  |  |  |  |  |  |  |  |  |  |  |  |  | inhibition at 1 µM (PARP1; PARP1, 1 μM, read-out: inhibition rate): 22.4%
2 | NC(=O)c1cccc(N)c1 [Compound 3-AB, reference compound] |  |  |  |  |  |  |  |  |  |  |  |  |  | inhibition at 1000 µM (PARP1; PARP1, 1 mM, read-out: inhibition rate): 100%
3 | Cl.O=c1[nH]nc2c3c(cccc13)N=C1CNCCN12 [Compound A1] | 90.5 nM | higher | 30 min | 4190 ± 575 h · h · ng · mL^−1 | 3790 ± 547 h · h · ng · mL^−1 | 0.463 ± 0.063 h⁻¹ | 57.2 ± 6.24 min | 9200 ± 336 h · h · ng · mL^−1 | 8548 ± 240 h · h · ng · mL^−1 | 29.7 ± 3.2 mL·min/kg | 0.523 ± 0.046 h⁻¹ | 93 ± 12 min | 3.62 ± 0.37 L/kg | AUC(0-inf) [1, 2]: 4280 ± 317 ng·h/mL; AUC(0-t) [1, 2]: 4250 ± 304 ng·h/mL; clearance [1, 2]: 19.5 ± 1.4 mL/min/kg; half-life [1, 2]: 91.8 ± 9.6 min; Vd [1, 2]: 1.11 ± 0.11 L/kg; bioavailability ([1]; in vivo): 67.5% and 67.1%; AUC(0-inf) [1, 3]: 5740 ± 841 ng·h/mL; AUC(0-t) [1, 3]: 5710 ± 802 ng·h/mL; Cmax [1, 3]: 3120 ± 173 ng/mL; half-life [1, 3]: 80.4 ± 7.2 min
4 | CCN1CCN2C(=Nc3cccc4c(=O)[nH]nc2c34)C1 [Compound A2] | 65.7 nM |  |  |  |  |  |  |  |  |  |  |  |  | 
5 | CN1CCN2C(=Nc3cccc4c(=O)[nH]nc2c34)C1 [Compound A3] | 130 nM | higher | 15 min | 1175 ± 105 h · h · ng · mL^−1 | 1145 ± 120 h · h · ng · mL^−1 | 1.02 ± 0.034 h⁻¹ | 30.4 ± 2.4 min | 2658 ± 308 h · h · ng · mL^−1 | 2566 ± 474 h · h · ng · mL^−1 | 71.3 ± 7.6 mL·min/kg | 0.818 ± 0.036 h⁻¹ | 64.8 ± 5.64 min | 5.22 ± 0.81 L/kg | AUC(0-inf) [1, 6]: 2290 ± 321 ng·h/mL; AUC(0-t) [1, 6]: 2290 ± 323 ng·h/mL; clearance [1, 6]: 38.4 ± 2.5 mL/min/kg; half-life [1, 6]: 43.3 ± 4.92 min; Vd [1, 6]: 1.15 ± 0.07 L/kg; bioavailability ([1]; plasma): 50.5 ± 6.8%; AUC(0-inf) [1, 4]: 2310 ± 309 ng·h/mL; AUC(0-t) [1, 4]: 2340 ± 334 ng·h/mL; Cmax [1, 4]: 1860 ± 251 ng/mL; half-life [1, 4]: 50.9 ± 3.3 min
6 | CC(C)N1CCN2C(=Nc3cccc4c(=O)[nH]nc2c34)C1 [Compound A4] | 111 nM |  |  |  |  |  |  |  |  |  |  |  |  | 
7 | O=c1[nH]nc2c3c(cccc13)N=C1CN(Cc3ccccc3)CCN12 [Compound A5] | 58.7 nM |  |  |  |  |  |  |  |  |  |  |  |  | 
8 | C=C(C)CCN1CCN2C(=Nc3cccc4c(=O)[nH]nc2c34)C1 [Compound A6] | 39.1 nM | higher | 30 min | 232 ± 17 h · h · ng · mL^−1 | 196 ± 27 h · h · ng · mL^−1 | 3.64 ± 0.22 h⁻¹ | 13.3 ± 1.56 min | 284 ± 29 h · h · ng · mL^−1 | 269 ± 33 h · h · ng · mL^−1 | 626 ± 93 mL·min/kg | 1.77 ± 0.28 h⁻¹ | 70.2 ± 5.4 min | 31.2 ± 4.8 L/kg | AUC(0-inf) [1, 6]: 1040 ± 118 ng·h/mL; AUC(0-t) [1, 6]: 1000 ± 92 ng·h/mL; clearance [1, 6]: 83.1 ± 13.3 mL/min/kg; half-life [1, 6]: 11.5 ± 0.72 min; Vd [1, 6]: 1.1 ± 0.15 L/kg; bioavailability ([1]; plasma): 13 ± 2.1%; AUC(0-inf) [1, 4]: 271 ± 43 ng·h/mL; AUC(0-t) [1, 4]: 264 ± 36 ng·h/mL; Cmax [1, 4]: 259 ± 28 ng/mL; half-life [1, 4]: 30.8 ± 2.46 min
